Target: PD-1/PD-L1 (Homo sapiens, UniProt Q9NZQ7)
Test: TR-FRET PD-1/PD-L1 binding inhibition at the molecular level (free proteins)
Details: Tag1-PD-L1 and Tag2-PD-1 proteins, twelve concentrations from 200 nM, 2 hours at room temperature, read-out: FRET assay (IC50)
Method in brief: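 HTRF read-out at 665/620 nm after 2 h at room temperature. Detection used anti-Tag1 Eu cryptate plus anti-Tag2 XL665 antibodies. Tagged PD-L1 and PD-1 proteins were pre-mixed with compound across twelve […] 1:2 dilutions starting at 200 nM.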

Sequence of PD-1/PD-L1 (Q9NZQ7 19-238 limits assumed): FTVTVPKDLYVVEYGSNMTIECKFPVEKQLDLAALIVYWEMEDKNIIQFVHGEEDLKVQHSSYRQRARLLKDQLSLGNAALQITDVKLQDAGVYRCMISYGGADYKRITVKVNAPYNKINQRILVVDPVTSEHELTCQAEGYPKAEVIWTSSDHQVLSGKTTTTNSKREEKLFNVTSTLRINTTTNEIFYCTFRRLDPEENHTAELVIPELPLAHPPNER

| SMILES | IC50 [µM] |
| --- | --- |
| O=C(Nc1cccc(-c2cccc(NC(=O)c3cc4n(n3)CCCC4N3CCC(O)CC3)c2Cl)c1Cl)c1ccc(CNCCO)cn1 (stereo not shown) [Compound 87, N-(2,2'-dichloro-3'-(5-(((2-hydroxyethyl)amino)methyl)picolinamido)-[1,1'-biphenyl]-3-yl)-4-(4-hydroxypiperidin-1-yl)-4,5,6,7-tetrahydropyrazolo[1,5-a]pyridine-2-carboxamide] | 0.01 to 0.1 |
| O=C(Nc1cccc(-c2cccc(NC(=O)c3cc4n(n3)CCCC4N3CCC(C(=O)O)CC3)c2Cl)c1Cl)c1ccc(CNCCO)cn1 (stereo not shown) [Compound 88, 1-(2-((2,2'-dichloro-3'-(5-(((2-hydroxyethyl)amino)methyl)picolinamido)-[1,1'-biphenyl]-3-yl)carbamoyl)-4,5,6,7-tetrahydropyrazolo[1,5-a]pyridin-4-yl)piperidine-4-carboxylic acid] | < 0.01 |
| O=C(O)CNC1CCCn2nc(C(=O)Nc3cccc(-c4cccc(NC(=O)c5ccc(CNCCO)cn5)c4Cl)c3Cl)cc21 (stereo not shown) [Compound 89, 2-((2-((2,2'-dichloro-3'-(5-(((2-hydroxyethyl)amino)methyl)picolinamido)-[1,1'-biphenyl]-3-yl)carbamoyl)-4,5,6,7-tetrahydropyrazolo[1,5-a]pyridin-4-yl)amino)acetic acid] | < 0.01 |
| CC(C)(NC1CCCn2nc(C(=O)Nc3cccc(-c4cccc(NC(=O)c5ccc(CNCCO)cn5)c4Cl)c3Cl)cc21)C(=O)O (stereo not shown) [Compound 90, 2-((2-((2,2'-dichloro-3'-(5-(((2-hydroxyethyl)amino)methyl)picolinamido)-[1,1'-biphenyl]-3-yl)carbamoyl)-4,5,6,7-tetrahydropyrazolo[1,5-a]pyridin-4-yl)amino)-2-methylpropanoic acid] | < 0.01 |
| Cc1c(NC(=O)c2ccc(CN3CC[C@@H](O)C3)cn2)cccc1-c1cccc(NC(=O)c2cc3n(n2)CCCC3NCCO)c1C (stereo partly drawn) [Compound 91, 4-((2-hydroxyethyl)amino)-N-(3'-(5-(((R)-3-hydroxypyrrolidin-1-yl)methyl)picolinamido)-2,2'-dimethyl-[1,1'-biphenyl]-3-yl)-4,5,6,7-tetrahydropyrazolo[1,5-a]pyridine-2-carboxamide] | < 0.01 |
| Cc1c(NC(=O)c2ccc(CN3CC[C@@H](O)C3)cn2)cccc1-c1cccc(NC(=O)c2cc3n(n2)CCCC3N2CC[C@@H](O)C2)c1C (stereo partly drawn) [Compound 92, 4-((R)-3-hydroxypyrrolidin-1-yl)-N-(3'-(5-(((R)-3-hydroxypyrrolidin-1-yl)methyl)picolinamido)-2,2'-dimethyl-[1,1'-biphenyl]-3-yl)-4,5,6,7-tetrahydropyrazolo[1,5-a]pyridine-2-carboxamide] | < 0.01 |
| Cc1c(NC(=O)c2ccc(CN3CC[C@@H](O)C3)cn2)cccc1-c1cccc(NC(=O)c2cc3n(n2)CCCC3NC[C@@H]2CCC(=O)N2)c1C (stereo partly drawn) [Compound 93, N-(3'-(5-(((R)-3-hydroxypyrrolidin-1-yl)methyl)picolinamido)-2,2'-dimethyl-[1,1'-biphenyl]-3-yl)-4-((((S)-5-oxopyrrolidin-2-yl)methyl)amino)-4,5,6,7-tetrahydropyrazolo[1,5-a]pyridine-2-carboxamide] | < 0.01 |
| CC(=O)NCCNC1CCCn2nc(C(=O)Nc3cccc(-c4cccc(NC(=O)c5ccc(CN6CC[C@@H](O)C6)cn5)c4C)c3C)cc21 (stereo partly drawn) [Compound 94, 4-((2-acetamidoethyl)amino)-N-(3'-(5-(((R)-3-hydroxypyrrolidin-1-yl)methyl)picolinamido)-2,2'-dimethyl-[1,1'-biphenyl]-3-yl)-4,5,6,7-tetrahydropyrazolo[1,5-a]pyridine-2-carboxamide] | < 0.01 |
| Cc1c(NC(=O)c2ccc(CN3CC[C@@H](O)C3)cn2)cccc1-c1cccc(NC(=O)c2cc3n(n2)CCCC3NCC(=O)O)c1C (stereo partly drawn) [Compound 95, 2-((2-((3'-(5-(((R)-3-hydroxypyrrolidin-1-yl)methyl)picolinamido)-2,2'-dimethyl-[1,1'-biphenyl]-3-yl)carbamoyl)-4,5,6,7-tetrahydropyrazolo[1,5-a]pyridin-4-yl)amino)acetic acid] | < 0.01 |
| Cc1c(NC(=O)c2ccc(CN3CC[C@@H](O)C3)cn2)cccc1-c1cccc(NC(=O)c2cc3n(n2)CCCC3N2CC[C@@H](C(=O)O)C2)c1C (stereo partly drawn) [Compound 96, (3R)-1-(2-((3'-(5-(((R)-3-hydroxypyrrolidin-1-yl)methyl)picolinamido)-2,2'-dimethyl-[1,1'-biphenyl]-3-yl)carbamoyl)-4,5,6,7-tetrahydropyrazolo[1,5-a]pyridin-4-yl)pyrrolidine-3-carboxylic acid] | < 0.01 |
| O=C(Nc1cccc(-c2cccc(Nc3nccc4cc(CN5CC[C@H](O)C5)cnc34)c2Cl)c1Cl)c1cc2n(n1)CCCC2N1CCC(O)CC1 (stereo partly drawn) [Compound 97, N-(2,2'-dichloro-3'-((3-(((S)-3-hydroxypyrrolidin-1-yl)methyl)-1,7-naphthyridin-8-yl)amino)-[1,1'-biphenyl]-3-yl)-4-(4-hydroxypiperidin-1-yl)-4,5,6,7-tetrahydropyrazolo[1,5-a]pyridine-2-carboxamide] | < 0.01 |
| Cc1c(NC(=O)c2ccc(CN3CC[C@@H](O)C3)cn2)cccc1-c1cccc(NC(=O)c2cc3n(n2)CCCC3N2CCC(C(=O)O)CC2)c1C (stereo partly drawn) [Compound 98, 1-(2-((3'-(5-(((R)-3-hydroxypyrrolidin-1-yl)methyl)picolinamido)-2,2'-dimethyl-[1,1'-biphenyl]-3-yl)carbamoyl)-4,5,6,7-tetrahydropyrazolo[1,5-a]pyridin-4-yl)piperidine-4-carboxylic acid] | < 0.01 |
| Cc1c(NC(=O)c2ccc(CN3CC[C@@H](O)C3)cn2)cccc1-c1cccc(NC(=O)c2cc3n(n2)CCCC3NC(C)(C)C(=O)O)c1C (stereo partly drawn) [Compound 99, 2-((2-((3'-(5-(((R)-3-hydroxypyrrolidin-1-yl)methyl)picolinamido)-2,2'-dimethyl-[1,1'-biphenyl]-3-yl)carbamoyl)-4,5,6,7-tetrahydropyrazolo[1,5-a]pyridin-4-yl)amino)-2-methylpropanoic acid] | < 0.01 |
| O=C(Nc1cccc(-c2cccc(NC(=O)c3cc4n(n3)CCCC4NCCO)c2Cl)c1Cl)c1ccc(CN2CC[C@@H](O)C2)cn1 (stereo partly drawn) [Compound 100, N-(2,2'-dichloro-3'-(5-(((R)-3-hydroxypyrrolidin-1-yl)methyl)picolinamido)-[1,1'-biphenyl]-3-yl)-4-((2-hydroxyethyl)amino)-4,5,6,7-tetrahydropyrazolo[1,5-a]pyridine-2-carboxamide] | < 0.01 |
| O=C(Nc1cccc(-c2cccc(NC(=O)c3cc4n(n3)CCCC4N3CC[C@@H](O)C3)c2Cl)c1Cl)c1ccc(CN2CC[C@@H](O)C2)cn1 (stereo partly drawn) [Compound 101, N-(2,2'-dichloro-3'-(5-(((R)-3-hydroxypyrrolidin-1-yl)methyl)picolinamido)-[1,1'-biphenyl]-3-yl)-4-((R)-3-hydroxypyrrolidin-1-yl)-4,5,6,7-tetrahydropyrazolo[1,5-a]pyridine-2-carboxamide] | 0.01 to 0.1 |
| CC(=O)NCCNC1CCCn2nc(C(=O)Nc3cccc(-c4cccc(NC(=O)c5ccc(CN6CC[C@@H](O)C6)cn5)c4Cl)c3Cl)cc21 (stereo partly drawn) [Compound 103, 4-((2-acetamidoethyl)amino)-N-(2,2'-dichloro-3'-(5-(((R)-3-hydroxypyrrolidin-1-yl)methyl)picolinamido)-[1,1'-biphenyl]-3-yl)-4,5,6,7-tetrahydropyrazolo[1,5-a]pyridine-2-carboxamide] | < 0.01 |
| O=C(O)CNC1CCCn2nc(C(=O)Nc3cccc(-c4cccc(NC(=O)c5ccc(CN6CC[C@@H](O)C6)cn5)c4Cl)c3Cl)cc21 (stereo partly drawn) [Compound 104, 2-((2-((2,2'-dichloro-3'-(5-(((R)-3-hydroxypyrrolidin-1-yl)methyl)picolinamido)-[1,1'-biphenyl]-3-yl)carbamoyl)-4,5,6,7-tetrahydropyrazolo[1,5-a]pyridin-4-yl)amino)acetic acid] | < 0.01 |
| O=C(Nc1cccc(-c2cccc(NC(=O)c3cc4n(n3)CCCC4N3CC[C@@H](C(=O)O)C3)c2Cl)c1Cl)c1ccc(CN2CC[C@@H](O)C2)cn1 (stereo partly drawn) [Compound 105, (3R)-1-(2-((2,2'-dichloro-3'-(5-(((R)-3-hydroxypyrrolidin-1-yl)methyl)picolinamido)-[1,1'-biphenyl]-3-yl)carbamoyl)-4,5,6,7-tetrahydropyrazolo[1,5-a]pyridin-4-yl)pyrrolidine-3-carboxylic acid] | < 0.01 |
| O=C(Nc1cccc(-c2cccc(NC(=O)c3cc4n(n3)CCCC4N3CCC(O)CC3)c2Cl)c1Cl)c1ccc(CN2CC[C@@H](O)C2)cn1 (stereo partly drawn) [Compound 106, N-(2,2'-dichloro-3'-(5-(((R)-3-hydroxypyrrolidin-1-yl)methyl)picolinamido)-[1,1'-biphenyl]-3-yl)-4-(4-hydroxypiperidin-1-yl)-4,5,6,7-tetrahydropyrazolo[1,5-a]pyridine-2-carboxamide] | < 0.01 |
| O=C(Nc1cccc(-c2cccc(NC(=O)c3cc4n(n3)CCCC4N3CCC(C(=O)O)CC3)c2Cl)c1Cl)c1ccc(CN2CC[C@@H](O)C2)cn1 (stereo partly drawn) [Compound 107, 1-(2-((2,2'-dichloro-3'-(5-(((R)-3-hydroxypyrrolidin-1-yl)methyl)picolinamido)-[1,1'-biphenyl]-3-yl)carbamoyl)-4,5,6,7-tetrahydropyrazolo[1,5-a]pyridin-4-yl)piperidine-4-carboxylic acid] | 0.01 to 0.1 |
| CC(C)(NC1CCCn2nc(C(=O)Nc3cccc(-c4cccc(NC(=O)c5ccc(CN6CC[C@@H](O)C6)cn5)c4Cl)c3Cl)cc21)C(=O)O (stereo partly drawn) [Compound 108, 2-((2-((2,2'-dichloro-3'-(5-(((R)-3-hydroxypyrrolidin-1-yl)methyl)picolinamido)-[1,1'-biphenyl]-3-yl)carbamoyl)-4,5,6,7-tetrahydropyrazolo[1,5-a]pyridin-4-yl)amino)-2-methylpropanoic acid] | < 0.01 |
| Cc1c(NC(=O)c2cc3n(n2)CCCC3O)cccc1-c1cccc(-c2ccc(CNC[C@@H]3CCC(=O)N3)cc2)c1C (stereo partly drawn) [Compound 109, N-(2,2'-dimethyl-4"-(((((S)-5-oxopyrrolidin-2-yl)methyl)amino)methyl)-[1,1':3',1"-terphenyl]-3-yl)-4-hydroxy-4,5,6,7-tetrahydropyrazolo[1,5-a]pyridine-2-carboxamide] | < 0.01 |

Source: EP4755888A1 (ILAb Co., Ltd., priority 2023, dated 2025)
